Measurements reported in PubChem BioAssay AID2060601 (Molecular Pharmacology Branch, DTP, NCI, 2025).

System: 874868-142-R-J2-PDC complex spheroids, growth % test/control
Test: Anticancer human tumor 874868-142-R-J2-PDC patient-derived head and neck squamous carcinoma cell line growth inhibition [CLK]
Conditions: for IC50: curve of first compound; for viability, T/C: stronger effect = lower value
How it was run: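 Multi-cell-type spheroids combined patient-derived tumor cells with HUVEC endothelial cells and human mesenchymal stem cells. Paired agents were dosed in half-log steps down from about clinical Cmax, or from 10 microM where Cmax was unknown.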

[1] = second compound 0.0316 µM, first compound 0.0316 µM
[2] = second compound 0.0316 µM, first compound 0.1 µM
[3] = second compound 0.0316 µM, first compound 0.316 µM
[4] = second compound 0.0316 µM, first compound 1 µM
[5] = second compound 0.0316 µM, first compound 3.16 µM
[6] = second compound 0.0316 µM, first compound 10 µM
[7] = second compound 0.1 µM, first compound 0.0316 µM
[8] = second compound 0.1 µM, first compound 0.1 µM
[9] = second compound 0.1 µM, first compound 0.316 µM
[10] = second compound 0.1 µM, first compound 1 µM
[11] = second compound 0.1 µM, first compound 3.16 µM
[12] = second compound 0.1 µM, first compound 10 µM
[13] = second compound 0.316 µM, first compound 0.0316 µM
[14] = second compound 0.316 µM, first compound 0.1 µM
[15] = second compound 0.316 µM, first compound 0.316 µM
[16] = second compound 0.316 µM, first compound 1 µM
[17] = second compound 0.316 µM, first compound 3.16 µM
[18] = second compound 0.316 µM, first compound 10 µM
[19] = second compound 1 µM, first compound 0.0316 µM
[20] = second compound 1 µM, first compound 0.1 µM
[21] = second compound 1 µM, first compound 0.316 µM
[22] = second compound 1 µM, first compound 1 µM
[23] = second compound 1 µM, first compound 3.16 µM
[24] = second compound 1 µM, first compound 10 µM
[25] = second compound 3.16 µM, first compound 0.0316 µM
[26] = second compound 3.16 µM, first compound 0.1 µM
[27] = second compound 3.16 µM, first compound 0.316 µM
[28] = second compound 3.16 µM, first compound 1 µM
[29] = second compound 3.16 µM, first compound 3.16 µM
[30] = second compound 3.16 µM, first compound 10 µM
[31] = second compound 10 µM, first compound 0.0316 µM
[32] = second compound 10 µM, first compound 0.1 µM
[33] = second compound 10 µM, first compound 0.316 µM
[34] = second compound 10 µM, first compound 1 µM
[35] = second compound 10 µM, first compound 3.16 µM
[36] = second compound 10 µM, first compound 10 µM
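Further: spheroids exposed to the compounds for 7 days.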
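Wherever viability, T/C is given: 100% = DMSO vehicle control viability.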

C#Cc1c(F)ccc2cc(O)cc(-c3ncc4c(N5CC6CCC(C5)N6)nc(OCC56CCCN5CC(F)C6)nc4c3F)c12 (stereo unspecified) + CNC(=O)c1ccc(Nc2nc(OC3CCCC3)c3c(-c4ccc5nc(C)oc5c4)c[nH]c3n2)c(OC)c1
IC50 (second compound 0.0316 µM): 6560 nM | IC50 (second compound 0.1 µM): 862 nM | IC50 (second compound 0.316 µM): 89.5 nM | IC50 (second compound 1 µM): < 31.6 nM | IC50 (second compound 3.16 µM): < 31.6 nM | IC50 (second compound 10 µM): < 31.6 nM | viability, T/C [1]: 92.7% | viability, T/C [2]: 75.7% | viability, T/C [3]: 80.7% | viability, T/C [4]: 65% | viability, T/C [5]: 54.3% | viability, T/C [6]: 47.1% | viability, T/C [7]: 72.5% | viability, T/C [8]: 84.5% | viability, T/C [9]: 66.5% | viability, T/C [10]: 48.4% | viability, T/C [11]: 51% | viability, T/C [12]: 43.3% | viability, T/C [13]: 58.1% | viability, T/C [14]: 48.5% | viability, T/C [15]: 44.2% | viability, T/C [16]: 43% | viability, T/C [17]: 39.8% | viability, T/C [18]: 39% | viability, T/C [19]: 41.6% | viability, T/C [20]: 39.4% | viability, T/C [21]: 36.5% | viability, T/C [22]: 35.2% | viability, T/C [23]: 35.1% | viability, T/C [24]: 31.6% | viability, T/C [25]: 37.1% | viability, T/C [26]: 37.8% | viability, T/C [27]: 31.1% | viability, T/C [28]: 30% | viability, T/C [29]: 30.5% | viability, T/C [30]: 33.8% | viability, T/C [31]: 35.8% | viability, T/C [32]: 37.4% | viability, T/C [33]: 33.9% | viability, T/C [34]: 32.6% | viability, T/C [35]: 32.4% | viability, T/C [36]: 26.8%

C=C(F)C(=O)N1CCN(c2nc(OCC3CCCN3C)nc3c2CCN(c2cccc4cccc(Cl)c24)C3)CC1CC#N (stereo unspecified) + CNC(=O)c1ccc(Nc2nc(OC3CCCC3)c3c(-c4ccc5nc(C)oc5c4)c[nH]c3n2)c(OC)c1
IC50 (second compound 0.0316 µM): 3460 nM | IC50 (second compound 0.1 µM): 3370 nM | IC50 (second compound 0.316 µM): < 31.6 nM | IC50 (second compound 1 µM): < 31.6 nM | IC50 (second compound 3.16 µM): < 31.6 nM | IC50 (second compound 10 µM): < 31.6 nM | viability, T/C [1]: 91.7% | viability, T/C [2]: 70.4% | viability, T/C [3]: 89.3% | viability, T/C [4]: 68.4% | viability, T/C [5]: 56.8% | viability, T/C [6]: 0.28% | viability, T/C [7]: 71.2% | viability, T/C [8]: 68.8% | viability, T/C [9]: 65.9% | viability, T/C [10]: 61.6% | viability, T/C [11]: 54.6% | viability, T/C [12]: 0.63% | viability, T/C [13]: 50.5% | viability, T/C [14]: 49.2% | viability, T/C [15]: 47.6% | viability, T/C [16]: 43.8% | viability, T/C [17]: 38.5% | viability, T/C [18]: 1.18% | viability, T/C [19]: 44.4% | viability, T/C [20]: 33% | viability, T/C [21]: 36.7% | viability, T/C [22]: 38.5% | viability, T/C [23]: 35.2% | viability, T/C [24]: 0.25% | viability, T/C [25]: 37.5% | viability, T/C [26]: 41.8% | viability, T/C [27]: 31% | viability, T/C [28]: 38% | viability, T/C [29]: 32.2% | viability, T/C [30]: 7.83% | viability, T/C [31]: 36.1% | viability, T/C [32]: 35.1% | viability, T/C [33]: 38.1% | viability, T/C [34]: 39.1% | viability, T/C [35]: 31.1% | viability, T/C [36]: 3.95%

CC(CO)NC(=O)c1cc(-c2ccc(Cl)cc2)nn(-c2cnn(C)c2)c1=O (stereo unspecified) + CNC(=O)c1ccc(Nc2nc(OC3CCCC3)c3c(-c4ccc5nc(C)oc5c4)c[nH]c3n2)c(OC)c1
IC50 (second compound 0.0316 µM): > 10000 nM | IC50 (second compound 0.1 µM): > 10000 nM | IC50 (second compound 0.316 µM): > 10000 nM | IC50 (second compound 1 µM): < 31.6 nM | IC50 (second compound 3.16 µM): < 31.6 nM | IC50 (second compound 10 µM): < 31.6 nM | viability, T/C [1]: 98% | viability, T/C [2]: 90.1% | viability, T/C [3]: 90.2% | viability, T/C [4]: 120% | viability, T/C [5]: 125% | viability, T/C [6]: 104% | viability, T/C [7]: 82.2% | viability, T/C [8]: 90% | viability, T/C [9]: 82.6% | viability, T/C [10]: 85.9% | viability, T/C [11]: 94.8% | viability, T/C [12]: 109% | viability, T/C [13]: 50.6% | viability, T/C [14]: 51.4% | viability, T/C [15]: 56.2% | viability, T/C [16]: 48.5% | viability, T/C [17]: 58.5% | viability, T/C [18]: 67.4% | viability, T/C [19]: 52.4% | viability, T/C [20]: 38.1% | viability, T/C [21]: 34.9% | viability, T/C [22]: 43.1% | viability, T/C [23]: 50.8% | viability, T/C [24]: 50.7% | viability, T/C [25]: 40.3% | viability, T/C [26]: 36.8% | viability, T/C [27]: 44.3% | viability, T/C [28]: 41.2% | viability, T/C [29]: 52.4% | viability, T/C [30]: 44.4% | viability, T/C [31]: 34.7% | viability, T/C [32]: 36.4% | viability, T/C [33]: 36.1% | viability, T/C [34]: 33.7% | viability, T/C [35]: 50.9% | viability, T/C [36]: 42.2%
